Experimental findings from ChEMBL document CHEMBL1128033, “Design and synthesis of new leads for PKC bisubstrate inhibitors” (Bioorg Med Chem Lett, 1994) are described below.

The term IC50 denotes the midpoint of a concentration-inhibition curve. Read a high IC50 as a need for much substance.

Structures are written as SMILES.

In experiment [1] the target is cAMP-dependent protein kinase (PKA) (Homo sapiens, UniProt P22694+P17612+P22612). Nature of the experiment: Inhibition of c-AMP dependent kinase (PKA) using histone II A protein. Type of experiment: protein assay.
For another experiment, the target named is Protein kinase C (PKC). The experiment can be described thus: Inhibition of protein kinase C (PKC) using histone III S protein. Type of experiment: protein assay.

Consider `NCCCCCCNC1=C(c2cc3ccccc3[nH]2)C(=O)NC1=O`, for which the 50% inhibitory concentration (IC50) in experiment [1] came out at 50 µM; at Protein kinase C (PKC) it was 40 µM.

At Protein kinase C (PKC), `C[C@H]1CNCCN1S(=O)(=O)c1cccc2cnccc12` registered an IC50 of 6 µM.

In the case of `NC(Cc1ccccc1)C(=O)NCCNCCCCCNC1=C(c2cc3ccccc3[nH]2)C(=O)NC1=O` (stereo not drawn), the IC50 in experiment [1] was 120 µM; at Protein kinase C (PKC), 95 µM.

As for `NCCCCCNC1=C(c2cc3ccccc3[nH]2)C(=O)NC1=O`, the half-inhibitory concentration (IC50) in experiment [1] stood at 300 µM; against Protein kinase C (PKC), 8 µM.

As to `NC(Cc1ccccc1)C(=O)NCCCCCNC1=C(c2cc3ccccc3[nH]2)C(=O)NC1=O` (stereo not drawn), at Protein kinase C (PKC), the IC50 came out at 120 µM.

Regarding `NCCCNCCCNC1=C(c2cc3ccccc3[nH]2)C(=O)NC1=O`, the results for the IC50 (in experiment [1]; on Protein kinase C (PKC)) were 390 µM and 100 µM, respectively.

Take `NC(CCC(=O)O)C(=O)NCCCCCNC1=C(c2cc3ccccc3[nH]2)C(=O)NC1=O` (stereo not drawn): the figures for the IC50 (in experiment [1]; on Protein kinase C (PKC)) were 390 µM and 105 µM, respectively.

On to `NCCNC1=C(c2cc3ccccc3[nH]2)C(=O)NC1=O`, for which the IC50 in experiment [1] is 100 µM; at Protein kinase C (PKC), 90 µM.

As for `NCCNCCCCCNC1=C(c2cc3ccccc3[nH]2)C(=O)NC1=O`, the figures for the half-maximal inhibitory concentration (IC50) (in experiment [1]; on Protein kinase C (PKC)) were over 500 µM and 110 µM, respectively.

Regarding `NCCCCCCCNC1=C(c2cc3ccccc3[nH]2)C(=O)NC1=O`, the values for the IC50 (in experiment [1]; against Protein kinase C (PKC)) were 150 µM and 5 µM, respectively.

On to `NCCNCCNC1=C(c2cc3ccccc3[nH]2)C(=O)NC1=O`, for which the IC50 is 310 µM in experiment [1] and 120 µM against Protein kinase C (PKC).

On Protein kinase C (PKC), `NC(N)=NCCCC(N)C(=O)NCCCCCNC1=C(c2cc3ccccc3[nH]2)C(=O)NC1=O` (stereo not drawn) yielded a concentration for half-maximal inhibition (IC50) of 60 µM.

As to `NC(N)=NCCCC(N)C(=O)NCCNCCCCCNC1=C(c2cc3ccccc3[nH]2)C(=O)NC1=O` (stereo not drawn), the IC50 in experiment [1] was 210 µM; against Protein kinase C (PKC), 8 µM.
